Each block holds one compound with its values, some of them ahead of it. Activity calls are given as the source filed them. The rule behind the calls is not given here.
How the values were obtained:
[1] = Drug recovery in plasma (unknown origin); type: ADME, cell-free
[2] = Stability in human plasma assessed as parent compound remaining after 75 mins relative to initial time; type: ADME, cell-free; details: read-out: Stability
[3] = Stability in human plasma assessed as parent compound remaining after 2 hrs relative to initial time; type: ADME, cell-free; details: read-out: Stability
[4] = Stability in human plasma assessed as parent compound remaining after 4 hrs relative to initial time; type: ADME, cell-free; details: read-out: Stability
[5] = Toxicity in mouse; type: organism-based; details: in vivo
SNU-16 = test: Antitumor activity against human SNU16 cells xenografted in nude BALB/c mouse assessed as tumor growth inhibition relative to control; type: functional
[6] = Tmax in CD-1 mouse administered as single po dose by mass spectrometry; type: ADME, organism-based; details: in vivo
Cytochrome P450 1A2 = target: T1, Cytochrome P450 1A2 (Homo sapiens, UniProt P05177); test: Inhibition of CYP1A2 (unknown origin); type: ADME
T1 sequence (P05177 whole entry): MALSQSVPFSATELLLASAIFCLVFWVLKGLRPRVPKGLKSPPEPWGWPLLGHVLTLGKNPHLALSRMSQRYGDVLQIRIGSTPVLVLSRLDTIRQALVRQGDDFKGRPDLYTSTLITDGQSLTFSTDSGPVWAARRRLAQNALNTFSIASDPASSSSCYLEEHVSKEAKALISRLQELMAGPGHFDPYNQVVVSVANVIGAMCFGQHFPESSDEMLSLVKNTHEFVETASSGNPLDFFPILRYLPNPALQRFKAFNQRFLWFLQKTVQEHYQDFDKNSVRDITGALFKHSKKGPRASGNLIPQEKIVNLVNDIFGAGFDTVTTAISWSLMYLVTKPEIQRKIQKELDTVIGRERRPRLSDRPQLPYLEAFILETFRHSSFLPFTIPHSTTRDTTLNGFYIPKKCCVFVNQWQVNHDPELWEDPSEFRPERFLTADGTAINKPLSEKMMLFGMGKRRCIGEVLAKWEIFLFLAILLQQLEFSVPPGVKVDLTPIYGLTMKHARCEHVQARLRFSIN

Cytochrome P450 2C19 = Cytochrome P450 2C19 (Homo sapiens, UniProt P33261); test: Inhibition of CYP2C19 (unknown origin); type: ADME
[7] = Half life in dog liver microsomes; type: ADME, Canis lupus familiaris, microsome
[8] = Half life in mouse liver microsomes; type: ADME, microsome
Cytochrome P450 3A4 = Cytochrome P450 3A4 (Homo sapiens, UniProt P08684); test: Inhibition of CYP3A4 (unknown origin); type: ADME
Cytochrome P450 2C9 = Cytochrome P450 2C9 (Homo sapiens, UniProt P11712); test: Inhibition of CYP2C9 (unknown origin); type: ADME
Mus musculus = test: Toxicity in nude BALB/c mouse xenografted with human A2780 cells assessed as change in body weight at 20 mg/kg, po qd measured up to 12 days post dose; type: organism-based; details: in vivo, 288 h
[9] = Unbound fraction in plasma (unknown origin); type: ADME, cell-free
[10] = Protein binding in plasma (unknown origin); type: ADME, cell-free; details: read-out: PPB (converted)
[11] = Half life in human liver microsomes; type: ADME, microsome
[12] = Toxicity in mouse administered as single po dose; type: organism-based; details: in vivo
A2780 = test: Antitumor activity against human A2780 cells xenografted in nude BALB/c mouse assessed as tumor growth inhibition at 20 mg/kg, po qd measured up to 12 days post dose; type: functional, organism-based
[13] = Stability in human plasma assessed as parent compound remaining after 24 hrs relative to initial time; type: ADME, cell-free; details: read-out: Stability
[14] = Half life in rat liver microsomes; type: ADME, microsome
Cytochrome P450 2D6 = Cytochrome P450 2D6 (Homo sapiens, UniProt P10635); test: Inhibition of CYP2D6 (unknown origin); type: ADME
[15] = Stability in human plasma assessed as parent compound remaining after 8 hrs relative to initial time; type: ADME, cell-free; details: read-out: Stability
Hs-578T [16] = test: Antiproliferative activity against paclitaxel-resistant human Hs 578T cells 10C clone up to 1000 nM after 72 hrs by ATPlite assay; type: functional, cell-based
BT-549 [17] = test: Antiproliferative activity against human BT549 cells up to 1000 nM after 72 hrs by ATPlite assay; type: functional, cell-based
Hs-578T [18] = test: Antiproliferative activity against human Hs 578T cells up to 1000 nM after 72 hrs by ATPlite assay; type: functional, cell-based
Breast carcinoma cell = test: Antitumor activity against chemo-refractory disease patient-derived breast cancer cells xenografted in NOD/SCID mouse assessed as tumor growth inhibition at 20 mg/kg, iv administered weekly for 15 days; type: functional, organism-based; details: Homo sapiens
MDA-MB-436 [19] = test: Antiproliferative activity against human MDA-MB-436 cells up to 1000 nM after 72 hrs by ATPlite assay; type: functional, cell-based
Hs-578T [20] = test: Antiproliferative activity against paclitaxel-resistant human Hs 578T cells 20B clone up to 1000 nM after 72 hrs by ATPlite assay; type: functional, cell-based
BT-549 [21] = test: Antiproliferative activity against paclitaxel-resistant human BT549 cells 10A clone up to 1000 nM after 72 hrs by ATPlite assay; type: functional, cell-based
MDA-MB-436 [22] = test: Antiproliferative activity against paclitaxel-resistant human MDA-MB-436 cells 20A clone up to 1000 nM after 72 hrs by ATPlite assay; type: functional, cell-based
MDA-MB-436 [23] = test: Antiproliferative activity against paclitaxel-resistant human MDA-MB-436 cells 20B clone up to 1000 nM after 72 hrs by ATPlite assay; type: functional, cell-based
in vitro [24] = details: human, Caco-2
Description: Apparent intrinsic permeability in human Caco2 cells from basolateral to apical side after 120 mins by mass spectrometry

in vitro [25] = details: human, Caco-2; remark: listed apart in the source
Description: Apparent intrinsic permeability in human Caco2 cells from apical to basolateral side after 120 mins by mass spectrometry

[26] = Efflux ratio of apparent intrinsic permeability in human Caco2 cells after 120 mins by mass spectrometry; type: ADME, cell-based; details: Caco-2

Chain of Cytochrome P450 2C19 (P33261 whole entry): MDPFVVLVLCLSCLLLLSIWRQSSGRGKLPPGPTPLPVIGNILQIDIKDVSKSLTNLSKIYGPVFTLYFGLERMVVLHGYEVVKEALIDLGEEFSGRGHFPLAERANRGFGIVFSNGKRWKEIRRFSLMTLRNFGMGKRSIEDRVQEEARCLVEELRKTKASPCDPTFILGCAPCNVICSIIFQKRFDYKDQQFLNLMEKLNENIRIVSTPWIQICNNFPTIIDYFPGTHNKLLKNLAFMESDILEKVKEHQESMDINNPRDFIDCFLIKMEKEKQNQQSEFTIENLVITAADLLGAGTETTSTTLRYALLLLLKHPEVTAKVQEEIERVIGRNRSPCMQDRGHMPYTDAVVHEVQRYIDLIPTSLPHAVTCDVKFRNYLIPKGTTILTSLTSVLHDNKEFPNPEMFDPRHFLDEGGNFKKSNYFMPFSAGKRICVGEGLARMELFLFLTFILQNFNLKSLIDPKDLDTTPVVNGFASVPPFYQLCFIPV
Chain of Cytochrome P450 3A4 (P08684 whole entry): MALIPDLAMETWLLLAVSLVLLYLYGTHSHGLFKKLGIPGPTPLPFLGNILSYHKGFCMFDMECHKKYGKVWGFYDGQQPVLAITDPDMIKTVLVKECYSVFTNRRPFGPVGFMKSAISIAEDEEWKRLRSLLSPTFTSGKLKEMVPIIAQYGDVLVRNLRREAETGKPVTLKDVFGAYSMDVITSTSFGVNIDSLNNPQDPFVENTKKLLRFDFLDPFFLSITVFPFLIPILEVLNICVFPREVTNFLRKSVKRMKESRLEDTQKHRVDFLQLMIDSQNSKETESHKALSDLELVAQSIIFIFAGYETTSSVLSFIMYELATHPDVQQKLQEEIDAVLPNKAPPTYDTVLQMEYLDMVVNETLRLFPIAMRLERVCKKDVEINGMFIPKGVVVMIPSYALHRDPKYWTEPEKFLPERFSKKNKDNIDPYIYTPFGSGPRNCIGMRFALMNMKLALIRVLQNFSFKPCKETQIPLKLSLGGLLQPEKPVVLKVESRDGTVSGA
Chain of Cytochrome P450 2C9 (P11712 whole entry): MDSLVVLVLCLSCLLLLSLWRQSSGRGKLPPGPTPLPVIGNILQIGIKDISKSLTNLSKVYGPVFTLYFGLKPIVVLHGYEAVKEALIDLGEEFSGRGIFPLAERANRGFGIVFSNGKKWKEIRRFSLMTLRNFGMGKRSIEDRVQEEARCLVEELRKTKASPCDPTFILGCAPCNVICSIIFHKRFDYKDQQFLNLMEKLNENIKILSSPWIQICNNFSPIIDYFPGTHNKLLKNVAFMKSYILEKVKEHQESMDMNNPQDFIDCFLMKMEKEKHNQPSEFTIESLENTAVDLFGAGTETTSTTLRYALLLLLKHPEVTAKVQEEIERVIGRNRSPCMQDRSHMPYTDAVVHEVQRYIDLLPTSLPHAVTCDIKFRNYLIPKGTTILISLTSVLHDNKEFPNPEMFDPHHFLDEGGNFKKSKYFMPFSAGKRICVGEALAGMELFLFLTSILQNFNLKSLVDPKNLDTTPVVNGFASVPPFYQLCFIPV
Chain of Cytochrome P450 2D6 (P10635 whole entry): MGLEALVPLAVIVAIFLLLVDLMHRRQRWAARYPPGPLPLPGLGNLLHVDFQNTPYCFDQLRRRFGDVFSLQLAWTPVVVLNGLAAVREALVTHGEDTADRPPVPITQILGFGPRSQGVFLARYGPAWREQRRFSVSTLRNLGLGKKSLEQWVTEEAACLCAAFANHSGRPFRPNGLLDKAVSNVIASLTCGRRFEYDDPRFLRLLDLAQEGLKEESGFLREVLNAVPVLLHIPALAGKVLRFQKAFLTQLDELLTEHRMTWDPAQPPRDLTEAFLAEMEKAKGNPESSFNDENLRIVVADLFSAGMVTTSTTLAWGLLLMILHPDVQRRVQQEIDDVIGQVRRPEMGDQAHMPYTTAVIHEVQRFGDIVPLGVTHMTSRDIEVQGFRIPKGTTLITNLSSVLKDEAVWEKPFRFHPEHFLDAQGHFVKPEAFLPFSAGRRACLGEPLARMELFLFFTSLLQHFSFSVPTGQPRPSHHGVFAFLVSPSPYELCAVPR

Structure (SMILES): CC(=O)CC(c1ccccc1)c1c(O)c2ccccc2oc1=O (centres undefined) [WARFARIN]
- Drug recovery [1]: 98.63%

Structure (SMILES): CC(C)[N+](C)(CCOC(=O)C1c2ccccc2Oc2ccccc21)C(C)C [PROPANTHELINE]
- remaining at 1.25 h [2]: 13.9%
- remaining at 2 h [3]: 5.16%
- remaining at 4 h [4]: 0.34%

Structure (SMILES): Cc1ncc(C(=O)Nc2ccc(-c3cccc(NC4CC4)c3)cn2)cn1
- MTD [5]: ≤ 6 mg/kg
- TGI (SNU-16): 67%
- Tmax [6]: ≤ 15 min

Structure (SMILES): Cc1ncc(C(=O)Nc2ccc(-c3ccsc3)cn2)cn1
- remaining at 1.25 h [2]: 91.7%
- IC50 (Cytochrome P450 1A2): > 30 µM
- IC50 (Cytochrome P450 2C19): > 30 µM
- half-life [7]: 35.2 min
- half-life [8]: 27.3 min
- remaining at 2 h [3]: 92.2%
- remaining at 4 h [4]: 86.9%
- Drug recovery [1]: 93.56%
- IC50 (Cytochrome P450 3A4): > 30 µM
- IC50 (Cytochrome P450 2C9): > 30 µM
- Activity (Mus musculus): Non-Toxic
- fraction unbound [9]: 0.0507
- fraction unbound [10]: 0.0507
- half-life [11]: 7.5 min
- MTD [12]: ≤ 20 mg/kg
- MTD [5]: ≤ 6 mg/kg
- TGI (A2780): Active
- remaining at 24 h [13]: 49%
- half-life [14]: 25.9 min
- TGI (SNU-16): 135%
- IC50 (Cytochrome P450 2D6): > 30 µM
- remaining at 8 h [15]: 71.6%

Structure (SMILES): CC(=O)O[C@H]1C(=O)[C@@]2(C)[C@H]([C@H](OC(=O)c3ccccc3)[C@]3(O)C[C@H](OC(=O)[C@H](O)[C@@H](NC(=O)c4ccccc4)c4ccccc4)C(C)=C1C3(C)C)[C@]1(OC(C)=O)CO[C@@H]1C[C@@H]2O
- Activity (Hs-578T [16]): inactive
- Activity (BT-549 [17]): Active
- Activity (Hs-578T [18]): Active
- TGI (Breast carcinoma cell): inactive
- Activity (MDA-MB-436 [19]): Active
- Activity (Hs-578T [20]): inactive
- Activity (BT-549 [21]): inactive
- Activity (MDA-MB-436 [22]): inactive
- Activity (MDA-MB-436 [23]): inactive

Structure (SMILES): Cc1ccc(C(=O)Nc2ccc(-c3cccc(C4COC4)c3)cn2)cn1
- MTD [5]: ≤ 6 mg/kg
- TGI (SNU-16): 69%
- Tmax [6]: ≤ 15 min

- Papp B→A at 2 h (in vitro [24]): 2.83 ×10⁻⁶ cm/s
- Papp A→B at 2 h (in vitro [25]): 0.87 ×10⁻⁶ cm/s
- efflux ratio at 2 h [26]: 3.24
Structure (SMILES): CNC(=C[N+](=O)[O-])NCCSCc1ccc(CN(C)C)o1 [RANITIDINE]

Source: ChEMBL document CHEMBL4184281, “Pharmacology and in vivo efficacy of pyridine-pyrimidine amides that inhibit microtubule polymerization” (Bioorg Med Chem Lett, 2018)
